Among the data in ChEMBL document CHEMBL5036314, “Structure-Guided Design of the First Noncovalent Small-Molecule Inhibitor of CRM1” (J Med Chem, 2021) are inhibition and Activity values, retold here.

Test [1] has as its target Exportin-1 (Saccharomyces cerevisiae) (UniProt P30822). Put plainly: Inhibition of GST-NES MVM binding to yeast CRM1 at 20 uM by pull down assay.
Test [2] has as its system HeLa. Put plainly: Anti-cancer activity against human HeLa cells assessed as cell viability at 20 uM incubated for 2 hrs by EdU incorporation based assay. Type of test: functional.
The test system of a further test is Saccharomyces cerevisiae. The test is described as follows: Inhibition of NES binding to yeast CRM1-T539 mutant in absence of RanGTP at 20 uM by pull down assay.
The subject of test [3] is HeLa. Put plainly: Binding affinity to human CRM1 C528S mutant transfected HeLa cells assessed as inhibition of nuclear export of cargoes at 2 uM incubated for 12 hrs by confocal microscope analysis. It counts as cell-based.
The target in the next test is Exportin-1 (Homo sapiens, UniProt O14980). The test is described as follows: Binding affinity to wild type human CRM1 transfected HeLa cells assessed as inhibition of nuclear export of cargoes at 2 uM incubated for 12 hrs by confocal microscope analysis. It counts as cell-based.
Chain of Exportin-1 (O14980 whole entry): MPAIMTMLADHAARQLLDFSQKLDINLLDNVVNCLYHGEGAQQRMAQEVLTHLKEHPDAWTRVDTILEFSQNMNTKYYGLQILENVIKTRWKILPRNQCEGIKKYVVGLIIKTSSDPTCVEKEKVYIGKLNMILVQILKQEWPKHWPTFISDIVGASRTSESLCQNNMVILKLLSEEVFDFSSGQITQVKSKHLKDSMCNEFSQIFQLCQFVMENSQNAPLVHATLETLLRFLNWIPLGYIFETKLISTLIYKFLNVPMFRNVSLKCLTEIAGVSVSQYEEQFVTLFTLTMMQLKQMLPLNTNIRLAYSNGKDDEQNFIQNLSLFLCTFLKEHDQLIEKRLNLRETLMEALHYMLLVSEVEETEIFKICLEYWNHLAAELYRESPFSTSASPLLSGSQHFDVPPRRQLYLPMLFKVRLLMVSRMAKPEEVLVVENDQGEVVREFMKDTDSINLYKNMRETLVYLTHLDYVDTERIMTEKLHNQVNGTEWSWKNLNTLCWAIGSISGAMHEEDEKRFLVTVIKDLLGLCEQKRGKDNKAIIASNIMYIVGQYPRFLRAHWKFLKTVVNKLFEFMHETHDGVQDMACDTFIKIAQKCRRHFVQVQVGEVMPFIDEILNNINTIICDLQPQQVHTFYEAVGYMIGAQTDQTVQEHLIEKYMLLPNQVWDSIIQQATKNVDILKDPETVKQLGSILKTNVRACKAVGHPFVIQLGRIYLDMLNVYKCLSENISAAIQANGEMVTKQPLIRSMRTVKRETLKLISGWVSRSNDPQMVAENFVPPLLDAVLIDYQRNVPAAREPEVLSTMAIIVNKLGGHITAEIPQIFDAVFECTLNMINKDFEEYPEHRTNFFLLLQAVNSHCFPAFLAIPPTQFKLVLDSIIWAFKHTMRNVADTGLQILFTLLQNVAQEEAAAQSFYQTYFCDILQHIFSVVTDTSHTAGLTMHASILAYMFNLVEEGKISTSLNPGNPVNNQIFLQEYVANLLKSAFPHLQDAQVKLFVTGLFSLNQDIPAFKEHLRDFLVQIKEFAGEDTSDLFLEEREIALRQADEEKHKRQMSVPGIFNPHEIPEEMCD
The test system of the next test is PANC-1. Put plainly: Anti-cancer activity against human PANC-1 cells assessed as cell survival at 10 uM for 72 hrs replaced with compound containing fresh culture medium every 12 hrs by Sulforhodamine B assay. Type of test: functional, cell-based. For orientation: In SRB staining, fixed cells bind dye roughly in proportion to their protein.
The test system of the next test is Huh-7. Put plainly: Anti-cancer activity against human HuH-7 cells assessed as cell survival at 10 uM for 72 hrs replaced with compound containing fresh culture medium every 12 hrs by Sulforhodamine B assay. It counts as functional, cell-based.
A further test relates to HCT-116. The test is described as follows: Anti-cancer activity against human HCT-116 cells assessed as cell survival at 10 uM for 72 hrs replaced with compound containing fresh culture medium every 12 hrs by Sulforhodamine B assay. Type of test: functional, cell-based.
In another test the test system is A2780. Put plainly: Anti-cancer activity against human A2780 cells assessed as cell survival at 10 uM for 72 hrs replaced with compound containing fresh culture medium every 12 hrs by Sulforhodamine B assay. Type of test: functional, cell-based.
For a further test, the system named is MGC-803. Put plainly: Anti-cancer activity against human MGC-803 cells assessed as cell survival at 10 uM for 72 hrs replaced with compound containing fresh culture medium every 12 hrs by Sulforhodamine B assay. It counts as functional, cell-based.
Another test relates to HepG2. The test is described as follows: Anti-cancer activity against human HepG2 cells assessed as cell survival at 10 uM for 72 hrs replaced with compound containing fresh culture medium every 12 hrs by Sulforhodamine B assay. Type of test: functional, cell-based.
The test system of the next test is SW48. The test is described as follows: Anti-cancer activity against human SW48 cells assessed as cell survival at 10 uM for 72 hrs replaced with compound containing fresh culture medium every 12 hrs by Sulforhodamine B assay. Type of test: functional, cell-based.
Another test has as its system HGC-27. The test is described as follows: Anti-cancer activity against human HGC-27 cells assessed as cell survival at 10 uM for 72 hrs replaced with compound containing fresh culture medium every 12 hrs by Sulforhodamine B assay. Type of test: functional, cell-based.
For test [4], the system named is HeLa. Put plainly: Anti-cancer activity against human HeLa cells assessed as cell survival at 10 uM for 72 hrs replaced with compound containing fresh culture medium every 12 hrs by Sulforhodamine B assay. Type of test: functional, cell-based.
For the next test, the system named is A549. The test is described as follows: Anti-cancer activity against human A549 cells assessed as cell survival at 10 uM for 72 hrs replaced with compound containing fresh culture medium every 12 hrs by Sulforhodamine B assay. Type of test: functional, cell-based.
The subject of test [5] is HeLa. The test is described as follows: Cytotoxicity against human HeLa cells transfected with hCRM1-C528S-mutant assessed as cell viability measured for 72 hrs replaced with compound containing fresh culture medium every 12 hrs by Sulforhodamine B assay. Type of test: functional, cell-based.

Structures are written as SMILES. Active and inactive are the calls of the source. No cut-off for these calls is given here.

Consider `FC(F)(F)c1cc(SCc2ccnc(Cl)c2)cc(C(F)(F)F)c1`, for which, in [1], the inhibition result is “inactive”. Also, the outcome with HeLa [2] was inactive.
Consider `[O-][S+](Cc1ccnc(Cl)c1)c1cc(C(F)(F)F)cc(C(F)(F)F)c1` (stereo unspecified), for which the inhibition result in test [1] was “inactive”. The outcome in the test with HeLa [2] was inactive.
With `O=C(/C=C\n1cnc(-c2cc(C(F)(F)F)cc(C(F)(F)F)c2)n1)NNc1cnccn1`, the inhibition entry with Saccharomyces cerevisiae, in the test with HeLa [3] and on Exportin-1 was “inactive” each time. Further, the outcome in the test with PANC-1, with Huh-7, with HCT-116, in the test with A2780, with MGC-803 and in the test with HepG2 was Active. The result in the test on SW48, in the test on HGC-27, in the test with HeLa [4] and in the test with A549 was Active. The outcome in the test on HeLa [5] was inactive.
With `CC(C)CCNC/C=C/Sc1cc(C(F)(F)F)cc(C(F)(F)F)c1`, the result in the test with HeLa [2] was inactive.
As to `CC(C)CCNc1cc(C[S+]([O-])c2cc(C(F)(F)F)cc(C(F)(F)F)c2)on1` (stereo unspecified), in [1], the inhibition result was “inactive”. The result with HeLa [2] was inactive.
Take `CC(C)CCNc1cc(C[S+]([O-])c2cc(C(F)(F)F)cc(C(F)(F)F)c2)ccn1` (stereo unspecified): the inhibition result in [1] is “inactive”. Besides, the outcome in the test on HeLa [2] was inactive.
With `FC(F)(F)c1cc(S/C=C/CBr)cc(C(F)(F)F)c1`, the inhibition result (in [1]; in the test on Saccharomyces cerevisiae) was “Active” throughout. Besides, in the test on HeLa [2], the outcome was inactive.
Turning to `[O-][S+](Cc1cc(Br)no1)c1cc(C(F)(F)F)cc(C(F)(F)F)c1` (stereo unspecified), the inhibition entry in test [1] is “inactive”. In the test with HeLa [2], the result was inactive.
Regarding `[O-][S+](/C=C/CBr)c1cc(C(F)(F)F)cc(C(F)(F)F)c1` (stereo unspecified), the inhibition result (in [1]; in the test with Saccharomyces cerevisiae) was “Active” in each case. Besides, the result in the test on HeLa [2] was inactive.
Consider `CC1=C(COCCC(C)(C)C)C(=O)N(Nc2ccc(C(F)(F)F)c(Cl)n2)C1=O`, for which the outcome in the test with PANC-1, in the test with Huh-7, in the test on HCT-116, in the test on A2780, in the test with MGC-803 and with HepG2 was Active. Besides, the result with SW48, in the test with HGC-27, in the test on HeLa [4] and with A549 was Active.
